# Laboratory results from patent EP4759821A1, “CITRULLINATED SETDB1 POLYPEPTIDE AND USE THEREOF IN DIAGNOSIS OF RHEUMATOID ARTHRITIS” (Xiamen University, priority 2023, dated 2025).
# Non-standard residues stand in square brackets, D forms with d. No end group written: not given here. Cit = NC(=O)NCCC[C@H](N)C(=O)O
# Test system: autoantibodies against cit-4 (anti-citrullinated SETDB1 antibody)
# Experiment: indirect ELISA of autoantibodies against biotin-conjugated citrullinated short polypeptides in serum
# Type: binding, human
# Protocol: The autoantibody expression levels of the citrulline markers were detected using an indirect ELISA method. In short, biotin-conjugated short polypeptides were first coated onto PABC plates at a concentration of 50 ng/well. After coating, serum from 24 rheumatoid arthritis (RA) patients and 24 healthy subjects (HC) were diluted 10-fold as primary antibodies and incubated for 30 minutes. HRP-labeled goat anti-human IgG (GAH-HRP) was used as secondary antibody, incubation was performed for 30 minutes, and color development and reading were finally carried out.
# The expression level of citrulline marker autoantibodies in patients with rheumatoid arthritis was detected using an indirect ELISA method (see Example 1 for details). In addition, anti-citrullinated peptide antibody (CCP2) was used as a control. […]
# The cit-4 antibody level was detected in a CCP2-negative patient population using an indirect ELISA method (see Example 1 for details).
# The levels of citrullinated SETDB1 autoantibodies in the serum of patients with different autoimmune diseases (RA rheumatoid arthritis, SLE systemic lupus erythematosus, PSS primary Sjögren's syndrome, and SSc scleroderma) were detected using an indirect ELISA method (see Example 1 for details). […]
sequence,measurement,setting,value
NPLLVPLLYDFXXMTAXXXVNXK (NPLLVPLLYDF[Cit][Cit]MTA[Cit][Cit][Cit]VN[Cit]K; also: conjugated with biotin) [cit-4],level of autoantibodies in rheumatoid arthritis,"Example 1, Fig. 1A, serum of 24 RA patients vs 24 healthy subjects (HC), diluted 10-fold, peptide coated 50 ng/well, GAH-HRP secondary antibody",significantly elevated
same,level of citrullinated SETDB1 autoantibodies,"Example 4, Fig. 4A, serum of patients with different autoimmune diseases (RA, SLE, PSS, SSc)",the highest in rheumatoid arthritis
